Laboratory results from DBAASP.
In brackets after ≈: the same amount, converted by molar mass. Several values for one entry are separate records, joined by “and”; a condition that tells them apart may be missing. Identical values can stand only once.

Assays:
Experiment in all cases: ≥ marks a high value that may be exact or a test limit, other limits are often not marked, values filed in µg/mL are converted to µM
Escherichia coli UTI89 = system: Escherichia coli UTI89
[1] = system: Escherichia coli K12 MG1655
[2] = system: Staphylococcus epidermidis
[3] = system: Salmonella enterica subsp. enterica serovar Typhimurium ATCC 14028
Penicillium expansum = system: Penicillium expansum
Aspergillus niger = system: Aspergillus niger
[4] = system: Staphylococcus aureus ATCC 12600
[5] = system: Escherichia coli ATCC 11775
[6] = system: Candida albicans ATCC 14053
[7] = system: Micrococcus luteus ATCC 49732
Candida albicans = system: Candida albicans
[8] = system: Candida tropicalis CGMCC 2.1975
[9] = system: Staphylococcus aureus ATCC 25923
Escherichia coli 1005 = system: Escherichia coli 1005
[10] = system: Candida parapsilosis CGMCC 2.3989
[11] = system: Salmonella enterica subsp. enterica serovar Pullorum ATCC 7913
[12] = system: Candida albicans CGMCC 2.2086
[13] = system: Staphylococcus aureus ATCC 29213
[14] = system: Staphylococcus epidermidis ATCC 12228
[15] = system: Candida krusei CGMCC 2.1857
[16] = system: Staphylococcus aureus ATCC 43300
[17] = system: Escherichia coli ATCC 25922

## CC[C@H](C)[C@H](NC(=O)[C@H](CCCCN)NC(=O)[C@H](CCC(N)=O)NC(=O)[C@H](Cc1c[nH]c2ccccc12)NC(=O)[C@@H](NC(=O)[C@H](CCCCN)NC(=O)[C@@H](N)CCCCN)[C@@H](C)CC)C(=O)N[C@@H](CCCCN)C(=O)N[C@@H](CC(N)=O)C(=O)N[C@@H](Cc1ccccc1)C(=O)N[C@@H](Cc1ccccc1)C(=O)N[C@@H](CCC(N)=O)C(=O)N[C@@H](CCCCN)C(=O)N[C@@H](CC(C)C)C(=O)O [KKIWQKIKNFFQKL]
Escherichia coli UTI89
  MIC: 6.25 µM (≈ 11.6 µg/mL)
[1]
  MIC: 6.25 µM (≈ 11.6 µg/mL)
[2]
  MIC: 29 µM (≈ 53.6 µg/mL)
[3]
  MIC: 50 µM (≈ 92.5 µg/mL)

## CC(C)C[C@H](NC(=O)[C@H](Cc1ccccc1)NC(=O)[C@H](CCCN=C(N)N)NC(=O)[C@H](CCCN=C(N)N)NC(=O)[C@H](C)NC(=O)[C@H](Cc1c[nH]c2ccccc12)NC(=O)[C@H](Cc1c[nH]c2ccccc12)NC(=O)[C@H](C)NC(=O)[C@H](CCCN=C(N)N)NC(=O)[C@H](Cc1ccccc1)NC(=O)[C@H](Cc1ccccc1)NC(=O)[C@H](CCCCN)NC(=O)[C@@H](N)CCCCN)C(=O)N[C@@H](CCCCN)C(N)=O [KKFFRAWWARRFLK]
Penicillium expansum
  MIC: 6.44 µM (≈ 12.5 µg/mL)
Aspergillus niger
  MIC: 6.44 µM (≈ 12.5 µg/mL)

## CC[C@H](C)[C@H](NC(=O)[C@H](CCCCN)NC(=O)[C@H](CCC(N)=O)NC(=O)[C@H](Cc1c[nH]c2ccccc12)NC(=O)[C@@H](NC(=O)[C@H](CCCCN)NC(=O)[C@@H](N)CCCCN)[C@@H](C)CC)C(=O)N[C@@H](CCCCN)C(=O)N[C@@H](CCCN=C(N)N)C(=O)N[C@@H](Cc1ccccc1)C(=O)N[C@@H](Cc1ccccc1)C(=O)N[C@@H](CCC(N)=O)C(=O)N[C@@H](CCCCN)C(=O)N[C@@H](CC(C)C)C(=O)O [KKIWQKIKRFFQKL]
Escherichia coli UTI89
  MIC: ≥ 50 µM
[1]
  MIC: ≥ 50 µM
[2]
  MIC: 7.5 µM (≈ 14.2 µg/mL)
[3]
  MIC: 50 µM (≈ 94.6 µg/mL)

## CC(C)[C@H](NC(=O)[C@H](C)NC(=O)[C@@H](NC(=O)CNC(=O)[C@H](C)N)[C@@H](C)O)C(=O)N[C@@H](Cc1ccccc1)C(=O)N[C@@H](CCCCN)C(=O)O [AGTAVFK]
[4]
  MIC: ≥ 107 µM
[5]
  MIC: ≥ 107 µM
[6]
  MIC: ≥ 321 µM
[7]
  MIC: ≥ 963 µM

## NC(=O)[C@H](CCCN=C(N)N)NC(=O)[C@H](CCCN=C(N)N)NC(=O)[C@H](Cc1c[nH]c2ccccc12)NC(=O)[C@H](CCCN=C(N)N)NC(=O)[C@H](Cc1c[nH]c2ccccc12)NC(=O)[C@H](Cc1c[nH]c2ccccc12)NC(=O)[C@H](Cc1c[nH]c2ccccc12)NC(=O)[C@H](CCCN=C(N)N)NC(=O)[C@H](Cc1c[nH]c2ccccc12)NC(=O)[C@H](CCCN=C(N)N)NC(=O)[C@@H](N)CCCN=C(N)N [RRWRWWWRWRR]
Candida albicans
  MIC: 4 µM (≈ 7.54 µg/mL)
[8]
  MIC: 2 µM (≈ 3.77 µg/mL)
[9]
  MIC: 4 µM (≈ 7.54 µg/mL)
Escherichia coli 1005
  MIC: 4 µM (≈ 7.54 µg/mL)
[10]
  MIC: 8 µM (≈ 15.1 µg/mL)
[11]
  MIC: 2 µM (≈ 3.77 µg/mL)
[3]
  MIC: 4 µM (≈ 7.54 µg/mL)
[12]
  MIC: 4 µM and 8 µM
[13]
  MIC: 2 µM (≈ 3.77 µg/mL)
[14]
  MIC: 4 µM (≈ 7.54 µg/mL)
[15]
  MIC: 2 µM (≈ 3.77 µg/mL)
[16]
  MIC: 4 µM (≈ 7.54 µg/mL)

## NC(=O)[C@H](CCCN=C(N)N)NC(=O)[C@H](Cc1ccccc1)NC(=O)[C@H](CCCN=C(N)N)NC(=O)[C@H](Cc1ccccc1)NC(=O)[C@H](Cc1ccccc1)NC(=O)[C@H](Cc1ccccc1)NC(=O)[C@H](CCCN=C(N)N)NC(=O)[C@H](Cc1ccccc1)NC(=O)[C@@H](N)CCCN=C(N)N [RFRFFFRFR]
Candida albicans
  MIC: 5.66 µM (≈ 7.79 µg/mL)
[8]
  MIC: 2 µM (≈ 2.76 µg/mL)
[9]
  MIC: 4 µM (≈ 5.51 µg/mL)
Escherichia coli 1005
  MIC: 4 µM (≈ 5.51 µg/mL)
[10]
  MIC: 16 µM (≈ 22 µg/mL)
[11]
  MIC: 2 µM (≈ 2.76 µg/mL)
[3]
  MIC: 4 µM (≈ 5.51 µg/mL)
[13]
  MIC: 4 µM (≈ 5.51 µg/mL)
[17]
  MIC: 4 µM and > 2 µM
[14]
  MIC: 4 µM (≈ 5.51 µg/mL)
[15]
  MIC: 4 µM (≈ 5.51 µg/mL)
[16]
  MIC: 4 µM (≈ 5.51 µg/mL)
